Reference: US7632506B2, “Identification of new NY-ESO-1 epitopes recognized by CD4+ T-cells” (Ludwig Institute for Cancer Research, priority 2005, dated 2009)

Legend:
[1] = test system: CD4+ T cell clones NW2337-CD4-1 and NW2337-CD4-10; assay: Peptide titration ELISPOT assay with overlapping NY-ESO-1 peptides; format: cell-based, human; settings: peptide 10 μM to 0.1 nM pulsed onto autologous EBV-B-cells
Protocol: The CD4^+ T cells were restimulated weekly with 1 μg/ml of the peptide being used. On day 12, each CD4^+ culture was assayed for NY-ESO-1 peptide recognition, using the ELISPOT assay of lager, et al., Proc. Natl. Acad. Sci. USA, 97(9):4760-4765 (2000), incorporated by reference. To elaborate on this procedure, flat-bottomed, 96-well nitrocellulose plates were coated with 5 μg/ml of anti-interferon-gamma antibody and incubated overnight at 4° C. After washing with PBS, plates were blocked with 10% human serum (HS) for 1 hour at 37° C. Depending on the effector:target ratio used, various numbers of presensitized CD4^+ T-cells were added to each well along with 5×10^4 autologous peptide pulsed EBV transfected B cells (“EBV-B cells”) serving as target cells and incubated for 16 hours at 37° C. in TCM without IL-2. Plates were then washed extensively (6 times with a solution of 0.05% Tween 20/PBS), and biotinylated anti-interferon-gamma detection antibody was added at a concentration of 0.5 μg/ml. After incubation for 2 h at 37° C., plates were washed and incubated with ABC-AP Vectastain for 1 hour. Plates were washed again and developed with substrate (BCIP/NPT) until blue spots were visible. The number of blue spots/well represented the proportion of NY-ESO-1 specific CD4^+ T-cells/well was finally counted under the microscope.
To further identify the exact epitope required for CD4^+ T cell recognition by these two CD4^+ T cell clones, a peptide titration assay was performed using overlapping NY-ESO-1 peptides (FIG. 2) at concentrations between 10 μM and 0.1 nM, pulsed onto autologous EBV-B-cells and tested in ELISPOT assays (FIG. 3).

HLA-DQB1 03011 = target: T1, HLA-DQB1 03011 (Homo sapiens, UniProt P01909+P01920); assay: ELISPOT with peptide pulsed allogeneic EBV-B-cells of known HLA class II type (HLA restriction); format: cell-based
T1 construct: peptide pulsed allogeneic EBV-B-cells with known HLA class II types as stimulator cells; endogenous in cells; host or cells: allogeneic patient-derived EBV-transformed B-cell lines (NW-2078, NW-2081, NW-2395, NW-2234, NW-2337, NW-1100, MZ-1257)
T1 sequence (P01920 33-261, other chains not shown): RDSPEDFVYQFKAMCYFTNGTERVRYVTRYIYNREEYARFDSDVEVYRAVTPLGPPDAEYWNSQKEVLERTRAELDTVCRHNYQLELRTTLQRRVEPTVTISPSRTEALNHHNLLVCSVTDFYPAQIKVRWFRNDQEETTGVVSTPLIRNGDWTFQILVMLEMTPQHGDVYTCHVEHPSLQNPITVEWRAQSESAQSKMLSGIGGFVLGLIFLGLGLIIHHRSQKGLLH
Protocol: In order to determine the HLA molecule to which the novel NY-ESO-1 peptides described above bind, the NW2337 CD4^+ T-cell clones NW2337-CD4-1 and NW2337-CD4-10, were tested in ELISPOT assays using a range of peptide pulsed allogeneic EBV-B-cells with known HLA class II types as stimulator cells as indicated in the following Table. The EBV-B-cell lines were HLA typed using standard methods as described above.
The NW2337-CD4-1 clone recognized allogenic peptide pulsed EBV-B cells from patients NW-2078, NW-2081, NW-2395, NW-2234, NW-2337, NW-1100 and MZ-1257. The allogenic EBV-B cells were recognized by the T cells when pulsed exogenously with either the NY-ESO-1 p49-66 or p55-72 as observed with autologous EBV-B cells described above. […] None of the EBV-B-cells lines that were not recognized by the T cells expressed this MHC allele. […] Again the NY-ESO-1 positive MZ-1257 EBV-B-cell line was recognized with or without exogenous peptide.

CD8+ T-cells = assay: ELISPOT of CD8+ T-cells presensitized with Ad2/ESO infected PBMC; format: cell-based, human
Protocol: To examine the possibility that one of the novel MHC class II epitopes described in this study may also represent an MHC class I binding peptide epitope, CD8^+ T-cells from the patients described above, were presensitized with autologous CD4^−/CD8^− PBMC infected with the recombinant adenovirus Ad2/ESO. Responder T-cells were tested in ELISPOT assays for recognition of autologous APC's pulsed with the 28 overlapping 18 mer peptides described in Table 2.

[2] = test system: CD4+ T cell clones NW2337-CD4-1 and NW2337-CD4-10; assay: 51Cr release assay with peptide-pulsed EBV-B target cells; format: cell-based, human
Protocol: In these experiments, exemplary clones NY-ESO-1 p49-66 specific CD4^+ T cell clone NW2337-CD4-1 and NY-ESO-1 p55-72 specific CD4^+ T cell clone NW2337-CD4-10 were characterized in ^51Chromium (^51Cr) release assays using peptides overlapping the sequence of each stimulation peptide. Standard ^51Cr release assay methods were used. Briefly, autologous EBV B cell target cells were labeled with 100 μCi Na2^51CrO4 for 2 hours, and pulsed with 18 mer or 20 mer NY-ESO-1 peptides (10 μg/ml) for 1 hour. Then, 1×10^3 target cells/well were incubated in 96 V- bottom microwell plates with effector cells at different E/T ratios for 4 h at 37° C. ^51Cr release was measured in the supernatant and the specific cytotoxicity was calculated using the standard methods. Polyclonal T-cell populations were preincubated with unlabeled K562 cells as competitors at a concentration of 40:1 in order to block non-specific effector reactions.
These experiments confirmed recognition of naturally presented NY-ESO-1 epitopes by the CD4+ T-cell clones.

## P55-72: synthetic 18 mer peptide, amino acids 55-72 of NY-ESO-1 (GPGGGAPRGPHGGAASGL; UniProt P78358 55-72, looked up, fragment) [Peptide P55-72]
[1]
  recognition by clone NW2337-CD4-1: recognized
  recognition by clone NW2337-CD4-10: able to recognize
HLA-DQB1 03011; only HLA-DQB1 03011 expressing allogenic EBV-B cell lines recognized
  MHC class II allele presenting the peptide to NW2337-CD4-10 T cells: HLA-DQB1 03011
HLA-DQB1 03011; only shared allele of the recognized peptide pulsed allogenic EBV-B cell lines
  MHC class II allele presenting the peptide to NW2337-CD4-1 T cells: HLA-DQB1 03011
CD8+ T-cells
  NW1454 CD8+ T-cell recognition of peptide pulsed T2-A3 and HLA-A3 expressing NW115 EBV-B-cell target cells: recognition
CD8+ T-cells; CD8+ T-cells from patient NW1231, NW1454 and NW2427, autologous APC's pulsed with peptide
  recognition by CD8+ T-cells: observed
CD8+ T-cells; only shared HLA class I allele of the three patients
  HLA class I molecule presenting the peptide: HLA-A3
[2]
  lysis of peptide pulsed autologous NW-2337-EBV B-cell lines by clones NW-2337-CD4-3 and -10: efficiently lysed
[2]; autologous EBV B cells pulsed with peptide 10 μg/ml, clone generated with p49-66
  recognition by clone NW2337-CD4-1: crossreacted
[2]; autologous EBV B cells pulsed with peptide 10 μg/ml, clone generated with p55-72
  recognition by clone NW2337-CD4-10: recognized
